For test [1], the species on record is Homo sapiens. The experiment in a line: Activity expressed by taste potency (taste intensity relative to sucrose on a mole/mole basis). The format is functional.
The species entered for test [2] is Homo sapiens. The experiment in a line: Taste quality. The format is functional.
A short description of test [3]: Evaluated for taste quality,.
The nature of test [4]: Evaluated for taste quality, NS means not sweet.
Test [5] in a line: The activity was expressed by the logarithm of the taste potency as measure of taste intensity relative to that of sucrose on a mole/mole basis; I means insoluble.
The nature of test [6]: The activity was expressed by the logarithm of the taste potency as measure of taste intensity relative to that of sucrose on a mole/mole basis; NI means not isolated.
Test [7] is described as follows: The activity was expressed by the logarithm of the taste potency as measure of taste intensity relative to that of sucrose on a mole/mole basis;T = tasteless.

For `C=COc1ccc([N+](=O)[O-])cc1N`, in test [1], the “Log A” value was 3.06. Take `O/N=C/C1=CCSCC1`: the “Log A” value in test [1] was 1.3. `CC(O)(CO)C1CC=C(/C=N/O)CC1` (centres undefined): in test [1], the “Log A” value amounted to 1.48. Further, in test [2], the Log sweet/bitter was -1.15. For `COC(C)C1=CC=C(/C=N/O)CC1` (centres undefined), in that order: 2.13 and 0.97. For the compound `Cc1ccc([N+](=O)[O-])cc1N`, in test [1], the “Log A” value is reported as 2.17. Regarding `CC(C)Oc1ccc([N+](=O)[O-])cc1N`, in test [1], the “Log A” value was 2.54. Still for that read-out and setting: under `COCC(C)(OC)C1CC=C(/C=N/O)CC1` (centres undefined) stands 1.7.

Take `CC(C)(OCC(=O)O)C1CC=C(/C=N/O)CC1` (centres undefined) [listing 1 of 2 here]: in test [1], the “Log A” value is 1.98. The same compound had a Log sweet/bitter in test [2] of 0.15. For `Nc1cc([N+](=O)[O-])ccc1O` [2-AMINO-4-NITROPHENOL], in test [1], the “Log A” value is 1.96. Consider `C=CC1C=C(/C=N/O)CCC1` (centres undefined), for which the “Log A” value in test [1] came to 2.24. The Log sweet/bitter in test [2] is -0.39. As for `CO/N=C(/C)C1CC=C(/C=N/O)CC1` (centres undefined), the “Log A” value in test [1] is given as 1.9. As to `COC(C)(CO)C1CC=C(/C=N/O)CC1` (centres undefined), the “Log A” value in test [1] is recorded as 1.04. This compound displayed a Log sweet/bitter in test [2] of -1.4. Take `O/N=C/C1=CCCCC1`: in test [1], the “Log A” value stood at 1.74. On the same count and under the same terms, to `CCOc1ccc(C#N)cc1N` belongs 2.63; to `COCCCC/C=C(C)/C=N/O`, 1.23.

`C=C(C)C1CC=C(/C=N/O)CC1` (centres undefined): the “Log A” value in test [1] was found to be 2.57. The compound also had a Log sweet/bitter in test [2] of 0.38. Consider `CC(C)(O)C1CC=C(/C=N/O)CC1` (centres undefined), for which the “Log A” value in test [1] is reported as 0.9. Further, in test [3], the Log sweet/bitter is -0.66. Regarding `C/C=C(C)/C=N/O`, the “Log A” value in test [1] was 1.6. Consider `COCC(C)(O)C1CC=C(/C=N/O)CC1` (centres undefined), for which the “Log A” value in test [1] is recorded as 0.6. The same compound showed a Log sweet/bitter in test [2] of -1.05. Consider `COc1ccc(C#N)cc1N`, for which the “Log A” value in test [1] came out at 1.89. In the case of `C/C(=N\O)C1=CCCCC1`, the “Log A” value in test [1] came to 2.61. Besides, in test [4], the Log sweet/bitter entry was “Not sweet”. Consider `COC(C)C1CCC=C(/C=N/O)C1` (centres undefined), for which the “Log A” value in test [1] is listed as 1.45. In test [2], this compound gave a Log sweet/bitter of -1.4.

`O/N=C/C1=CCOCC1`: in test [1], the “Log A” value was determined as 0.18. As for `CC1CC=C(/C=N/O)C(C)O1` (centres undefined), the “Log A” value in test [1] came out at 1. For the same compound, in test [4], the Log sweet/bitter result is “Not sweet”. As for `CC1CC=C(/C=N/O)CC1` (centres undefined), the “Log A” value in test [1] is 2.4. In addition, the Log sweet/bitter in test [2] is listed as -0.1.

For `CC(C)C1=CCC(/C=N/O)=CC1`, in test [1], the “Log A” value is 2.51. Also, the Log sweet/bitter in test [2] was -0.07. As for `O/N=C/C1=CC2C=CC1CC2` (centres undefined), in test [1], the “Log A” value is recorded as 2.51. Further, the Log sweet/bitter result in test [4] is “Not sweet”. On to `COC(C)C1=CCC=C(/C=N/O)C1` (centres undefined), for which the “Log A” value in test [1] is listed as 1.96. In test [4], the Log sweet/bitter result is “Not sweet”. As for `CCCOc1ccc(C#N)cc1N`, the “Log A” value in test [1] was 3.11. On to `COCC1CC=C(/C=N/O)C1` (centres undefined), for which, in test [1], the “Log A” value came out at 1.38. The compound further showed a Log sweet/bitter in test [2] of 0.64. Consider `C=C(C)/C=N/O`, for which the “Log A” value in test [1] is recorded as 0.9. Same read-out and setting: under `O/N=C/C1=CCC=CC1` stands 2.3; under `C/C=C(C)/C(C)=N/O`, 2.15.

As to `CC(C)(OCC(=O)O)C1CC=C(/C=N/O)CC1` (centres undefined) [listing 2 of 2 here], the Log sweet/bitter entry in test [4] is “Not sweet”. Take `Nc1cc([N+](=O)[O-])ccc1F`: in test [1], the “Log A” value is listed as 1.26. On the same count and under the same terms, under `CCCc1ccc([N+](=O)[O-])cc1N` stands 3.02; under `O/N=C/C1=COCCC1`, 0.48. For `COCC1=CCC=C(/C=N/O)C1`, the “Log A” value in test [1] is 2.15. For the same compound, the Log sweet/bitter entry in test [4] is “Not sweet”.

`COC1CC=C(/C=N/O)CC1` (centres undefined): in test [1], the “Log A” value is recorded as 0.9. This compound also yielded a Log sweet/bitter in test [2] of 0.21.

`CC1=CC=C(/C=N/O)CC1`: the “Log A” value in test [1] worked out at 2.18. The Log sweet/bitter in test [2] is listed as 0.23. For the compound `N#Cc1ccc(Cl)c(N)c1`, the “Log A” value in test [1] is given as 2.13. The same measure, in the same setting: to `Nc1cccc([N+](=O)[O-])c1` [3-NITROANILINE] belongs 1.21. On to `C=CC1CC=C(/C=N/O)CC1` (centres undefined), for which the “Log A” value in test [1] came to 3.06. This compound yielded a Log sweet/bitter in test [2] of 0.7. For `COCC1CCC=C1/C=N/O` (centres undefined), in that order: 1.52 and -0.12. For `O/N=C/C1=CCCC1`, the “Log A” value in test [1] is recorded as 1.74. As for `CCCOc1ccc([N+](=O)[O-])cc1N`, in test [1], the “Log A” value is given as 3.46. Still for that read-out and setting: to `Nc1cc([N+](=O)[O-])ccc1I` belongs 2.98. Turning to `COCCOCC1CC=C(/C=N/O)CC1` (centres undefined), in test [5], the “Log A” value was “Insoluble”.

Consider `COC(C)C1CC=C(/C=N/O)CC1` (centres undefined), for which, in test [1], the “Log A” value came to 1.9. The Log sweet/bitter in test [2] is on record as 0.4. Regarding `COCC(OC)C1CC=C(/C=N/O)CC1` (centres undefined), the “Log A” value in test [1] was 0.9. The Log sweet/bitter result in test [4] is “Not sweet”. `N#Cc1cccc(N)c1`: the “Log A” value in test [1] was 0.94.

On to `CC(C)(OCC(=O)[O-])C1CC=C(/C=N/O)CC1.[Na+]` (centres undefined), for which the “Log A” value in test [1] is reported as 1.

As to `COc1ccc([N+](=O)[O-])cc1N`, the “Log A” value in test [1] is 2.21. Same read-out and setting: to `Nc1cc([N+](=O)[O-])ccc1Br` belongs 2.71. For the compound `O/N=C/C1=CCCOC1`, in test [1], the “Log A” value is listed as 0.3. In the case of `COCC1CC=C(/C=N/O)CC1` (centres undefined), in test [1], the “Log A” value was 1.72. The Log sweet/bitter in test [2] is listed as 0.38.

As to `COC(C)C1=CCC(/C=N/O)=CC1` (centres undefined), the “Log A” value in test [1] came to 2.48. This compound had a Log sweet/bitter in test [2] of 1.96.

For `CC1=CCC(/C=N/O)=CC1`, the “Log A” value in test [1] is on record as 2.7. In test [2], this compound yielded a Log sweet/bitter of 1.42.

Take `CCOc1ccc([N+](=O)[O-])cc1N`: in test [1], the “Log A” value is given as 2.87. As to `COCC1=CCC(/C=N/O)=CC1`, in test [1], the “Log A” value stood at 2.35. Moreover, the Log sweet/bitter in test [2] came to 1.65. Consider `COCC1=CC=C(/C=N/O)CC1`, for which, in test [6], the “Log A” value is “Not isolated”. As to `CC1(C2CC=C(/C=N/O)CC2)CO1` (centres undefined), the “Log A” value in test [1] came out at 1.7.

Consider `CC(=O)C1CC=C(/C=N/O)CC1` (centres undefined), for which the “Log A” value in test [1] was found to be 1.08. In test [2], this compound displayed a Log sweet/bitter of 0.22. On to `COCC/C=C(C)/C=N/O`, for which the “Log A” value in test [1] is 0.6.

For `CCOC1CC=C(/C=N/O)CC1` (centres undefined), the “Log A” value in test [1] turned out to be 1.2. In test [2], this compound came in with a Log sweet/bitter of 0.21.

As for `COCCC1CC=C(/C=N/O)CC1` (centres undefined), in test [7], the “Log A” value was “Tasteless”. Regarding `CCCCOc1ccc([N+](=O)[O-])cc1N`, in test [1], the “Log A” value was 2.79. The same measure, in the same setting: to `O/N=C/C1=CC=CCC1` belongs 1.95. The same measure, in the same setting: to `N#Cc1ccc(Br)c(N)c1` belongs 2.46; to `Nc1cc([N+](=O)[O-])ccc1Cl`, 2.31.

Values taken from ChEMBL document CHEMBL1121410, “Structure--taste relationship of perillartine and nitro- and cyanoaniline derivatives” (J Med Chem, 1980).
